Assay results as given in US6706740B2, “Fungicidal heterocyclic aromatic amides and their compositions, methods of use and preparation” (Dow AgroSciences LLC, priority 1999, dated 2004).
Like-named read-outs stand apart in the source and are kept apart here.

How the values were obtained:
[1] = test system: Phytophthora infestans (PHYTIN); assay: microbe, parasite or virus in culture; type: cell-based; settings: Phytophthora infestans, read-out: PHYTIN in vitro Growth Inhibition
Septoria tritici—SEPTTR = assay: Leaf Blotch of Wheat, in vivo whole plant, 24 Hour Protectant; settings: Zymoseptoria tritici, 24 h, read-out: SEPTTR in vivo 1 Day Protectant
Ustilago maydis (USTIMA) = assay: microbe, parasite or virus in culture; type: cell-based; settings: Mycosarcoma maydis, read-out: USTIMA in vitro Growth Inhibition
[2] = test system: Stagonospora nodorum (Leptosphaeria nodorum—LEPTNO); assay: In vitro fungal growth inhibition, Stagonospora nodorum (LEPTNO); type: cell-based; settings: Leptosphaeria, read-out: LEPTNO in vitro Growth Inhibition
Erysiphe graminis—ERYSGT = assay: Powdery Mildew of Wheat, in vivo whole plant, 24 Hour Protectant; settings: Erysiphe, read-out: ERYSGT in vivo 1 Day Protectant
[3] = test system: Rhizoctonia solani (RHIZSO); assay: microbe, parasite or virus in culture; type: cell-based; settings: Rhizoctonia solani, read-out: RHIZSO in vitro Growth Inhibition
[4] = test system: Mycosphaerella graminicola (Septoria tritici—SEPTTR); assay: In vitro fungal growth inhibition, Mycosphaerella graminicola (SEPTTR); type: cell-based; settings: Zymoseptoria tritici, read-out: SEPTTR in vitro Growth Inhibition
[5] = test system: Magnaporthe grisea (Pyricularia oryzae—PYRIOR); assay: microbe, parasite or virus in culture; type: cell-based; settings: Pyricularia oryzae, read-out: PYRIOR in vitro Growth Inhibition
[6] = test system: Puccinia recondita—PUCCRT; assay: Brown Rust of Wheat, in vivo whole plant, 24 Hour Protectant; settings: Puccinia, read-out: PUCCRT in vivo 1 Day Protectant
[7] = test system: Phytophthora infestans—PHYTIN; assay: whole plant or invertebrate; type: in vivo; settings: Phytophthora, in Solanum lycopersicum, 24 h, read-out: PHYTIN in vivo 1 Day Protectant
[8] = test system: Leptosphaeria nodorum—LEPTNO; assay: Glume Blotch of Wheat, in vivo whole plant, 24 Hour Protectant; settings: for pest or weed control at 100 ppm: Leptosphaeria, read-out: LEPTNO in vivo 1 Day Protectant
[9] = 100 ppm spray, wheat, 24 hour protectant, control of fungal infection vs untreated plants

Row | Structure (SMILES) | inhibition at 25 ppm [1] | pest or weed control at 100 ppm (Septoria tritici—SEPTTR; [9]) | inhibition at 25 ppm (Ustilago maydis (USTIMA)) | inhibition at 25 ppm ([2]; 25 ppm in growth medium) | pest or weed control at 100 ppm (Erysiphe graminis—ERYSGT; [9]) | inhibition at 25 ppm [3] | inhibition at 25 ppm ([4]; 25 ppm in growth medium) | inhibition at 25 ppm [5] | pest or weed control at 100 ppm [6, 9] | pest or weed control at 100 ppm [7] | LEPTNO in vivo 1 Day Protectant [8, 9] | pest or weed control at 100 ppm [8, 9] | pest or weed control at 100 ppm (Septoria tritici—SEPTTR) | inhibition at 25 ppm [2] | pest or weed control at 100 ppm (Erysiphe graminis—ERYSGT; 24 h) | inhibition at 25 ppm [4] | pest or weed control at 100 ppm ([6]; 24 h) | pest or weed control at 100 ppm ([8]; 24 h)
1 | C=C(C)C(=O)O[C@H]1[C@H](C)OC(=O)[C@@H](NC(=O)c2nccc(OC)c2O)COC(=O)[C@@H]1Cc1ccccc1 [Compound 386] | < 80% | 25 to 74% | < 80% | > 80% | 25 to 74% | < 80% | > 80% | < 80% | 25 to 74% | < 25% | + + |  |  |  |  |  |  | 
2 | COc1ccnc(C(=O)N[C@H]2COC(=O)[C@H](Cc3ccccc3)[C@@H](OC(=O)C3CC3)[C@H](C)OC2=O)c1O [Compound 387] | < 80% | 25 to 74% | > 80% | > 80% | 25 to 74% | > 80% | > 80% | > 80% | 25 to 74% | < 25% | + + |  |  |  |  |  |  | 
3 | COc1ccnc(C(=O)N[C@H]2COC(=O)[C@H](Cc3ccccc3)[C@@H](OC(=O)C3CCCC3)[C@H](C)OC2=O)c1O [Compound 391] | < 80% | 25 to 74% | > 80% | > 80% | < 25% | < 80% | > 80% | > 80% | 25 to 74% | < 25% | + + |  |  |  |  |  |  | 
4 | COc1ccnc(C(=O)N[C@H]2COC(=O)[C@H](Cc3ccccc3)[C@@H](OC(=O)C3CCCCC3)[C@H](C)OC2=O)c1O [Compound 392] | < 80% | 25 to 74% | < 80% | > 80% | 25 to 74% | < 80% | > 80% | > 80% | 25 to 74% | < 25% | + + |  |  |  |  |  |  | 
5 | COc1ccnc(C(=O)N[C@H]2COC(=O)[C@H](Cc3ccccc3)[C@@H](OC(=O)C3C(C)CCCC3C)[C@H](C)OC2=O)c1O (some centres unmarked) [Compound 393] | < 80% | 25 to 74% | > 80% | > 80% | < 25% | < 80% | > 80% | > 80% | 25 to 74% | < 25% |  | 25 to 74% |  |  |  |  |  | 
6 | COc1ccnc(C(=O)N[C@H]2COC(=O)[C@H](Cc3ccccc3)[C@@H](OC(=O)Cc3ccccc3)[C@H](C)OC2=O)c1O [Compound 395] | < 80% |  | > 80% |  |  | < 80% |  | < 80% |  | < 25% |  |  | 25 to 74% | > 80% | < 25% | > 80% | 25 to 74% | 25 to 74%
7 | COc1ccnc(C(=O)N[C@H]2COC(=O)[C@H](Cc3ccccc3)[C@@H](OC(=O)/C=C(\C)CCC=C(C)C)[C@H](C)OC2=O)c1O [Compound 396] | < 80% | 25 to 74% | < 80% | > 80% | < 25% | < 80% | > 80% | > 80% | 25 to 74% | < 25% |  | 25 to 74% |  |  |  |  |  | 
8 | CCCCCCCCCCCCC(=O)O[C@H]1[C@H](C)OC(=O)[C@@H](NC(=O)c2nccc(OC)c2O)COC(=O)[C@@H]1Cc1ccccc1 [Compound 397] | < 80% | 25 to 74% | < 80% | < 80% | < 25% | < 80% | < 80% | < 80% | 25 to 74% | < 25% |  | 25 to 74% |  |  |  |  |  | 
9 | CCCCCCCCCCCCCCCCCC(=O)O[C@H]1[C@H](C)OC(=O)[C@@H](NC(=O)c2nccc(OC)c2O)COC(=O)[C@@H]1Cc1ccccc1 [Compound 398] | < 80% | < 25% | < 80% | > 80% | < 25% | < 80% | > 80% | > 80% | 25 to 74% | < 25% |  | < 25% |  |  |  |  |  | 
10 | COc1ccnc(C(=O)N[C@H]2COC(=O)[C@H](Cc3ccccc3)[C@@H](OC(=O)NC(C)C)[C@H](C)OC2=O)c1O [Compound 399] | < 80% | 25 to 74% | < 80% | < 80% | < 25% | < 80% | < 80% | < 80% | 25 to 74% | < 25% | + + |  |  |  |  |  |  | 
11 | COc1ccnc(C(=O)N[C@H]2COC(=O)[C@H](Cc3ccccc3)[C@@H](OC(=O)NC(C)(C)C)[C@H](C)OC2=O)c1O [Compound 400] | < 80% | 25 to 74% | < 80% | < 80% | 25 to 74% | < 80% | < 80% | > 80% | 25 to 74% | < 25% | + + |  |  |  |  |  |  | 
12 | COc1ccnc(C(=O)N[C@H]2COC(=O)[C@H](Cc3ccccc3)[C@@H](OC(=O)OC(C)C)[C@H](C)OC2=O)c1O [Compound 401] | < 80% | 25 to 74% | > 80% | > 80% | < 25% | < 80% | > 80% | > 80% | 25 to 74% | < 25% | + + |  |  |  |  |  |  | 
13 | COc1ccnc(C(=O)Nc2ccc(C(=O)c3cccc(C(F)(F)F)c3)cc2)c1O [Compound 405] | < 80% | < 25% | < 80% | > 80% | < 25% | < 80% | < 80% | < 80% | < 25% | < 25% |  | 25 to 74% |  |  |  |  |  | 
14 | COc1ccnc(C(=O)Nc2ccc(C(=O)c3ccc(C(F)(F)F)cc3)cc2)c1O [Compound 406] | < 80% | 25 to 74% | < 80% | < 80% | 25 to 74% | < 80% | < 80% | < 80% | < 25% | < 25% |  | 25 to 74% |  |  |  |  |  | 
15 | COc1ccnc(C(=O)Nc2ccc(/C(=N/O)c3cccc(C(F)(F)F)c3)cc2)c1O [Compound 407] | < 80% | 25 to 74% | < 80% | < 80% | < 25% | < 80% | > 80% | < 80% | < 25% | < 25% |  | 25 to 74% |  |  |  |  |  | 
16 | CO/N=C(/c1ccc(NC(=O)c2nccc(OC)c2O)cc1)c1cccc(C(F)(F)F)c1 [Compound 408] | < 80% | 25 to 74% | < 80% | > 80% | 25 to 74% | < 80% | < 80% | < 80% | < 25% | < 25% |  | 25 to 74% |  |  |  |  |  | 
